What was measured:
Musca domestica = assay: Housefly contact test, mortality after 48 hours; format: in vivo, Housefly Musca domestica; conditions: μg of the test compound per 25 female flies
Method: (§1) The compounds in Table I above were tested for insecticidal activity using the following testing procedures. LC50 values, based on the results of these tests and calculated according to dosage-mortality curves, are expressed in Table II.
The test compound was diluted in acetone and aliquots pipetted onto the bottom of aluminum dishes. To ensure even spreading of the chemical on the bottom of the dishes, 1 ml of acetone containing 0.01% peanut oil was also added to each dish. After all solvents had evaporated, the dishes were placed in circular cardboard cages containing 25 female houseflies, 1-2 days old. The cages were covered on the bottom with cellophane and on the top with tulle netting, and each contained a sugar-water saturated cotton plug for maintenance of the flies. Mortality was recorded after 48 hours. Test levels ranged from 100 μg/25 female houseflies downward. The LC-50 value is expressed below in Table II under the heading "HF", in terms of μg of the test compound per 25 female flies.

Aphis fabae = assay: Black bean aphid spray test on nasturtium plants, mortality after 48 hours; format: in vivo, Black Bean Aphid Aphis fabae (Scop.); conditions: mixed ages, percent of test compound in sprayed solution
Method: as §1
Black Bean Aphid Aphis fabae (Scop.)
Nasturtium plants (Tropaeolum sp.) approximately 5 cm tall, were transplanted into sandy loam soil in small cups and infested with 25-50 black bean aphids of mixed ages. Twenty-four hours later they were sprayed to the point of runoff with 50--50 acetone-water solutions of the test compound. Treated plants were held in the greenhouse and mortality was recorded after 48 hours. Test concentrations ranged from 0.05% downward. The LC-50 value is expressed below in Table II under the heading "BA" in terms of percent of the test compound in the sprayed solution.

Tetranychus urticae = assay: Two-spotted mite acaricidal test on pinto bean plants; format: in vivo, two-spotted mite Tetranychus urticae (Koch); conditions: percent concentration in solution, 5-7 days; for LC50 2-SM A: adults; for LC50 2-SM E: eggs
Source text: Acaricidal Evaluation Test
The two-spotted mite (2SM) [Tetranychus urticae (Koch)]was employed in tests for miticides. The test procedure was as follows:
Pinto bean plants (Phaseolus sp.) approximately 10 cm tall, were transplanted into sandy loam soil in small cups and thoroughly infested with two-spotted mites of mixed ages and sexes. Twenty-four hours later the infested plants were inverted and dipped for 2-3 seconds in 50--50 acetone-water solutions of the test compound. Treated plants were held in the greenhouse, and 5-7 days later mortality was determined for both adult mites and the nymphs hatching from eggs which were on the plants at the time of treatment. Test concentrations ranged from 0.05% downward. The LC-50 value is expressed below in Table II under the headings "2SM-A" (i.e., adults) and "2SM-E" (i.e. eggs) in terms of percent concentration of the test compound in the solution.

Heliothis virescens = assay: Tobacco budworm egg dip test; format: in vivo, Tobacco Budworm Heliothis virescens (Fabricius); conditions: 2-day old eggs (TBW-E), percent of test compound in solution
Method: as §1
Tobacco Budworm Heliothis virescens (Fabricius)
Eggs: Paper towel patches of 2-day old eggs of the tobacco budworm were dipped in acetone solutions of the test compound and placed in petri dishes containing a portion of larval rearing medium. Treated eggs were maintained at 78° F. and mortality was recorded after all control eggs had hatched and the young larvae were feeding on the media. Test concentrations ranged from 0.1% downward. The LC-50 value is expressed below in Table II under the heading "TBW-E" in terms of percent of the test compound in the solution.

Trichoplusia ni = assay: Cabbage looper larvae leaf-dip test; format: in vivo, Cabbage Looper Trichoplusia ni (Hubner); conditions: second instar larvae, percent of test compound in solution, 3-5 days
Method: as §1
Cabbage Looper Trichoplusia ni (Hubner)
The test compound was diluted in a 50--50 acetone-water solution Cotyledons of hyzini squash (Calabacita abobrinha), approximately 1×1.5 inches, were immersed in the test solutions for 2-3 seconds and placed on a wire screen to dry. The dried leaves were p1aced in petri dishes containing a moistened piece of filter paper and infested with 5 secondinstar cabbage looper larvae. The dishes were placed in a high humidity chamber. Mortality of the larvae was recorded 3-5 days later. Test concentrations ranged from 0.1% downward. The LC-50 value is expressed below in Table II under the heading "CL" in terms of percent of the test compound in solution.

[1] = test system: Diabrotica undecimpunctata undecimpunctata; assay: Western spotted cucumber beetle larvae soil test; format: in vivo; conditions: Diabrotica eggs/larvae; ppm of the test compound in the soil
Method: as §1
Western Spotted Cucumber Beetle Larvae Diabrotica undecimpunctata undecimpunctata (Mannherheim)
Ten grams of moist potting soil was placed in a plastic cup. The test compound was dissolved in acetone. A 0.05 ml aliquot of the test sample, diluted to the desired concentration, was added to the soil. The cup was capped and the soil was mixed on a vortex mixer for approximately 15 seconds. An indentation was made on the surface of the soil and approximately 50 Diabrotica eggs were added. The eggs were covered with soil and maintained at room temperature (approximately 70° F. or 21° C.). Four days later a section of Romaine lettuce (Latuca sativa) leaf was placed in the treated cups. One week later the cups were examined for live larvae. Test concentrations ranged from 25 ppm downward. The LC-50 value is expressed below in Table II under the heading "Diabrotica" in terms of ppm of the test compound in the soil.

Row | SMILES | LC50 HF (Musca domestica) | LC50 BA (Aphis fabae) | LC50 2-SM A (Tetranychus urticae) | LC50 2-SM E (Tetranychus urticae) | LC50 TBW (Heliothis virescens) | LC50 CL (Trichoplusia ni) | LC50 Diabrotica [1]
1 | COc1ccc(N=C(OCc2cccc(Oc3ccccc3)c2)C(C)C)cn1 [Compound 3] | 7 µg | 0.003% | > 0.05% | > 0.05% | > 0.1% | 0.0075% | > 25 ppm
2 | CC(C)C(=Nc1ccc(C(F)(F)F)cn1)OCc1cccc(Oc2ccccc2)c1 [Compound 4] | 42 µg | 0.05% | > 0.05% | > 0.05% | > 0.1% | 0.008% | > 25 ppm
3 | CC(C)C(=Nc1ccc(F)nc1)OCc1cccc(Oc2ccccc2)c1 [Compound 5] | 8 µg | 0.003% | > 0.05% | > 0.05% | 0.09% | 0.008% | > 25 ppm
4 | CC(C)C(=Nc1c(F)c(F)nc(F)c1F)OCc1cccc(Oc2ccccc2)c1 [Compound 6] | > 100 µg | > 0.05% | > 0.05% | > 0.05% | > 0.1% | 0.004% | > 25 ppm
5 | Clc1ccc(N=C(OCc2cccc(Oc3ccccc3)c2)C2CC2)cn1 [Compound 7] | > 100 µg | > 0.05% | > 0.05% | > 0.05% | > 0.1% | 0.022% | > 25 ppm
6 | Cc1cc(N=C(OCc2cccc(Oc3ccccc3)c2)C(C)C)no1 [Compound 8] | > 100 µg | > 0.05% | > 0.05% | > 0.05% | > 0.1% | 0.1% | > 25 ppm
7 | CC(C)(Cl)C(=Nc1nnc(C(F)(F)F)s1)OCc1cccc(Oc2ccccc2)c1 [Compound 9] | > 100 µg | > 0.05% | > 0.05% | > 0.05% | > 0.1% | 0.035% | > 25 ppm
8 | COC(=O)c1ccc(N=C(OCc2cccc(Oc3ccccc3)c2)C(C)C)o1 [Compound 14] | > 100 µg | > 0.05% | > 0.05% | > 0.05% | > 0.1% | 0.01% | > 25 ppm
9 | COc1ccc(N=C(OCc2cccc(Oc3ccccc3)c2)C2CC2)cn1 [Compound 15] | 58 µg | > 0.05% | > 0.05% | > 0.05% | > 0.1% | 0.05% | > 25 ppm
10 | CC(C)C(=Nc1ccc2nc(-c3ccccc3)oc2c1)OCc1cccc(Oc2ccccc2)c1 [Compound 28] | > 100 µg | > 0.05% | > 0.05% | > 0.05% | > 0.1% | 0.04% | > 25 ppm
11 | CC(C)C(=Nc1ccc(Cl)nc1)SCc1cccc(Oc2ccc(F)cc2)c1 [Compound 29] | > 100 µg | > 0.05% | > 0.05% | > 0.05% | > 0.1% | 0.025% | > 25 ppm
12 | CC(C)C(=Nc1ccc(Cl)nc1)OCc1cccc(Oc2ccc(Cl)cc2)c1 [Compound 30] | 15 µg | > 0.05% | > 0.05% | > 0.05% | 0.1% | 0.0007% | > 25 ppm
13 | CC(C)C(=Nc1cncc(C(F)(F)F)c1)OCc1cccc(Oc2ccccc2)c1 [Compound 33] | 5 µg | > 0.05% | > 0.05% | > 0.05% | 0.075% | 0.0035% | > 25 ppm
14 | CC(C)C(=Nc1cncc(C(F)(F)F)c1)OCc1ccc(F)c(Oc2ccc(Cl)cc2)c1 [Compound 37] | 40 µg | > 0.05% | > 0.05% | > 0.05% | > 0.1% | > 0.1% | > 25 ppm
15 | CSc1ccc(N=C(OCc2cccc(Oc3ccccc3)c2)C(C)C)cn1 [Compound 38] | < 100 µg | 0.005% | > 0.05% | > 0.05% | > 0.1% | > 0.1% | > 25 ppm
16 | CC(C)C(=Nc1ccc(OCC(F)(F)F)nc1)OCc1cccc(Oc2ccc(Cl)cc2)c1 [Compound 39] | > 100 µg | 0.001% | 0.006% | 0.006% | 0.02% | > 0.1% | > 25 ppm
17 | CC(C)C(=Nc1ccc(OCC(F)(F)F)nc1)OCc1cccc(Oc2ccccc2)c1 [Compound 40] | < 100 µg | 0.0003% | 0.006% | 0.006% | 0.045% | 0.00029% | > 25 ppm
18 | CC(C)C(=Nc1ccc(OCC(F)(F)F)nc1)OCc1ccc(F)c(Oc2ccccc2)c1 [Compound 42] | < 100 µg | 0.0004% | 0.006% | 0.006% | 0.017% | 0.000075% | > 25 ppm
19 | CC(C)C(=Nc1ccc(OCC(F)(F)F)nc1)OCc1cccc(Oc2ccc(F)cc2)c1 [Compound 43] | > 100 µg | 0.0003% | 0.006% | 0.006% | 0.02% | 0.00015% | > 25 ppm
20 | CC(C)C(=Nc1ccc(OCC(F)(F)F)nc1)OCc1ccc(F)c(Oc2ccc(Cl)cc2)c1 [Compound 44] | > 100 µg | 0.0003% | 0.001% | 0.001% | 0.01% | 0.00017% | > 25 ppm
21 | CC(C)C(=Nc1ccc(OCC(F)(F)F)nc1)OCc1cccc(Oc2ccccc2)n1 [Compound 45] | < 100 µg | 0.001% | 0.03% | 0.03% | > 0.1% | 0.00075% | > 25 ppm

From patent US4994473A, “Pyridyl containing insecticides” (ICI Americas Inc., priority 1988, dated 1991)
